Measured values as given in patent US20260083714A1, “DOSING REGIMEN FOR TREATING PKU WITH A PIPERIDINE INHIBITOR OF SLC6A19 FUNCTION” (Jnana Therapeutics Inc., priority 2022, published 2026).

Legend:
[1] = Plasma levels of Compound 1 over 24 hours after 14 days of suspension administration in healthy volunteers; assay type: in vivo; settings: human, oral; for concentration at 0 h: 0 h post-dose; for concentration at 0.5 h: 0.5 h post-dose; for concentration at 1 h: 1 h post-dose; for concentration at 1.5 h: 1.5 h post-dose; for concentration at 2 h: 2 h post-dose; for concentration at 2.5 h: 2.5 h post-dose; for concentration at 3 h: 3 h post-dose; for concentration at 4 h: 4 h post-dose; for concentration at 6 h: 6 h post-dose; for concentration at 8 h: 8 h post-dose; for concentration at 8.5 h: 8.5 h post-dose; for concentration at 9 h: 9 h post-dose; for concentration at 9.5 h: 9.5 h post-dose; for concentration at 10 h: 10 h post-dose; for concentration at 10.5 h: 10.5 h post-dose; for concentration at 11.5 h: 11.5 h post-dose; for concentration at 12 h: 12 h post-dose; for concentration at 14 h: 14 h post-dose; for concentration at 16 h: 16 h post-dose; for concentration at 24 h: 24 h post-dose
Experimental: FIG. 2 is an assessment of the pharmacokinetics of Compound 1 in healthy volunteers over 24 hours after 14 days of administration of a suspension of the compound at three different doses (25 or 75 mg twice daily [BID] or 150 mg once daily [QD]).
A suspension formulation of varying doses of Compound 1 (25 or 75 mg twice daily [BID] or 150 mg once daily [QD]) was administered to healthy volunteers. Plasma levels of Compound 1 over 24 hours after 14 days of administration were measured (FIG. 2). Post-dose plasma levels are recited in Table 14.

SLC6A19 = biological target: T1, SLC6A19 (Homo sapiens, UniProt Q695T7); experiment: 24 h excretion of phenylalanine and Hartnup amino acids at Day 1, 7 and 14 of suspension administration in healthy volunteers; assay type: in vivo; settings: for Hartnup Amino Acids excretion over 24 hours, Mean / Phenylalanine excretion over 24 hours, Mean: in mg
T1 construct: SCL6A19 is located in the proximal tubule of the kidney and is responsible for reabsorption of amino acids back into the blood; from tissue; host or cells: Kidney proximal tubule of healthy volunteers (in vivo, endogenous)
T1 sequence (Q695T7 1-634): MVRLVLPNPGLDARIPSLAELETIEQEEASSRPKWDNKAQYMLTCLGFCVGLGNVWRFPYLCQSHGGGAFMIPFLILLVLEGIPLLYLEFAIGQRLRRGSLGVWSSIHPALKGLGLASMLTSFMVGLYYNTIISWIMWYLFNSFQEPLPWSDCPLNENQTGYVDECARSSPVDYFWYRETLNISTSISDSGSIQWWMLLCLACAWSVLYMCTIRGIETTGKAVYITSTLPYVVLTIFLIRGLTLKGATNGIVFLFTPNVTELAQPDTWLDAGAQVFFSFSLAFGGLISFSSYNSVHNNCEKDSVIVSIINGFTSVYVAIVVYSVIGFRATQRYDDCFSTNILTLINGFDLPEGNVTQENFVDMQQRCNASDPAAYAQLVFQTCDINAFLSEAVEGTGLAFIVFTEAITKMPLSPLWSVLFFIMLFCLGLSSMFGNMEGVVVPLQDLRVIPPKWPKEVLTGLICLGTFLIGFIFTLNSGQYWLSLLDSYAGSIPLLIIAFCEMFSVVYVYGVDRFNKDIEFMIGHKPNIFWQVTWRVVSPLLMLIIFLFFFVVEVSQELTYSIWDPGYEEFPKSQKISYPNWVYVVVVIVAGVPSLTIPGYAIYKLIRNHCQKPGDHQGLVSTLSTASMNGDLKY
T1 sequence (Q9HBJ8 15-222 partner): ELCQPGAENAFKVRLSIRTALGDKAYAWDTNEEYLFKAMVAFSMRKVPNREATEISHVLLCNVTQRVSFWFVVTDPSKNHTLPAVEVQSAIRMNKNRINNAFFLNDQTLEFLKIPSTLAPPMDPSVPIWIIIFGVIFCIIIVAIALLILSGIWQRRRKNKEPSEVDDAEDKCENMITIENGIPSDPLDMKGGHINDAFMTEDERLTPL
Experimental: FIG. 3A is a graph of the pharmacodynamic effect of Compound 1 over time in healthy volunteers by measuring changes in total overall SLC6A19 amino acid substrates (Hartnup amino acids) over 14 days of administration of a suspension of the compound at three different doses (25 or 75 mg twice daily [BID] or 150 mg once daily [QD]).
FIG. 3B is a graph of the pharmacodynamic effect of Compound 1 over time in healthy volunteers by measuring changes in total 24 hour phenylalanine over 14 days of administration of a suspension of the compound at three different doses (25 or 75 mg twice daily [BID] or 150 mg once daily [QD]).
A suspension formulation of varying doses of Compound 1 (25 or 75 mg twice daily [BID] or 150 mg once daily [QD]) was administered to healthy volunteers. Changes in excretion of phenylalanine or overall SLC6A19 amino acid substrates (Hartnup amino acids) over 24 hours were measured at Day 1, 7 and 14 (FIGS. 3A and 3B). Urinary excretion of Hartnup amino acids over 24 hours increased from 0.4 g w/ PBO to 4.9 g w/ the compound 75 mg BID (13-fold increase) (Table 15A).

A concentration at 0 h ([1]; 25 mg BID suspension) of 186 ng/mL, a concentration at 0.5 h ([1]; 25 mg BID suspension) of 1190 ng/mL and a concentration at 1 h ([1]; 25 mg BID suspension) of 1090 ng/mL were found for NC(=O)N1CCC[C@@H](N(C(=O)NCc2ccc(OC(F)(F)F)cc2F)C2CC2)C1 [Cpd 1, (R)-3-(1-cyclopropyl-3-(2-fluoro-4-(trifluoromethoxy)benzyl)ureido) piperidine-1-carboxamide] in this work. For the same molecule, the concentration at 1.5 h ([1]; 25 mg BID suspension) was 1000 ng/mL, the concentration at 2 h ([1]; 25 mg BID suspension) was 922 ng/mL and the concentration at 2.5 h ([1]; 25 mg BID suspension) was 899 ng/mL. It also gave a concentration at 3 h ([1]; 25 mg BID suspension) of 820 ng/mL, a concentration at 4 h ([1]; 25 mg BID suspension) of 682 ng/mL and a concentration at 6 h ([1]; 25 mg BID suspension) of 442 ng/mL. For the same molecule, the concentration at 8 h ([1]; 25 mg BID suspension) was 336 ng/mL, the concentration at 8.5 h ([1]; 25 mg BID suspension) was 894 ng/mL and the concentration at 9 h ([1]; 25 mg BID suspension) was 977 ng/mL. It also gave a concentration at 9.5 h ([1]; 25 mg BID suspension) of 1010 ng/mL, a concentration at 10 h ([1]; 25 mg BID suspension) of 1010 ng/mL and a concentration at 10.5 h ([1]; 25 mg BID suspension) of 957 ng/mL. The concentration at 11.5 h ([1]; 25 mg BID suspension) was 909 ng/mL, the concentration at 12 h ([1]; 25 mg BID suspension) was 748 ng/mL and the concentration at 14 h ([1]; 25 mg BID suspension) was 562 ng/mL. The concentration at 16 h ([1]; 25 mg BID suspension) was 422 ng/mL, the concentration at 24 h ([1]; 25 mg BID suspension) was 193 ng/mL and the concentration at 0 h ([1]; 75 mg BID suspension) was 916 ng/mL. It also gave a concentration at 0.5 h ([1]; 75 mg BID suspension) of 3350 ng/mL, a concentration at 1 h ([1]; 75 mg BID suspension) of 3860 ng/mL and a concentration at 1.5 h ([1]; 75 mg BID suspension) of 3550 ng/mL. The concentration at 2 h ([1]; 75 mg BID suspension) was 3330 ng/mL, the concentration at 2.5 h ([1]; 75 mg BID suspension) was 3140 ng/mL and the concentration at 3 h ([1]; 75 mg BID suspension) was 2910 ng/mL. For the same molecule, the concentration at 4 h ([1]; 75 mg BID suspension) was 2610 ng/mL, the concentration at 6 h ([1]; 75 mg BID suspension) was 2000 ng/mL and the concentration at 8 h ([1]; 75 mg BID suspension) was 1600 ng/mL. For the same molecule, the concentration at 8.5 h ([1]; 75 mg BID suspension) was 3430 ng/mL, the concentration at 9 h ([1]; 75 mg BID suspension) was 3600 ng/mL and the concentration at 9.5 h ([1]; 75 mg BID suspension) was 3740 ng/mL. It also gave a concentration at 10 h ([1]; 75 mg BID suspension) of 3600 ng/mL, a concentration at 10.5 h ([1]; 75 mg BID suspension) of 3740 ng/mL and a concentration at 11.5 h ([1]; 75 mg BID suspension) of 3200 ng/mL. The concentration at 12 h ([1]; 75 mg BID suspension) was 2900 ng/mL, the concentration at 14 h ([1]; 75 mg BID suspension) was 2280 ng/mL and the concentration at 16 h ([1]; 75 mg BID suspension) was 1850 ng/mL. For the same molecule, the concentration at 24 h ([1]; 75 mg BID suspension) was 741 ng/mL, the concentration at 0 h ([1]; 150 mg QD suspension) was 299 ng/mL and the concentration at 0.5 h ([1]; 150 mg QD suspension) was 4230 ng/mL. It also gave a concentration at 1 h ([1]; 150 mg QD suspension) of 4590 ng/mL, a concentration at 1.5 h ([1]; 150 mg QD suspension) of 4360 ng/mL and a concentration at 2 h ([1]; 150 mg QD suspension) of 4100 ng/mL. It also gave a concentration at 2.5 h ([1]; 150 mg QD suspension) of 3940 ng/mL, a concentration at 3 h ([1]; 150 mg QD suspension) of 3660 ng/mL and a concentration at 4 h ([1]; 150 mg QD suspension) of 3130 ng/mL. It also gave a concentration at 6 h ([1]; 150 mg QD suspension) of 2270 ng/mL, a concentration at 8 h ([1]; 150 mg QD suspension) of 1750 ng/mL and a concentration at 10 h ([1]; 150 mg QD suspension) of 1360 ng/mL. For the same molecule, the concentration at 12 h ([1]; 150 mg QD suspension) was 1000 ng/mL, the concentration at 24 h ([1]; 150 mg QD suspension) was 247 ng/mL and the “Hartnup Amino Acids excretion over 24 hours, Mean” value (SLC6A19; 25 mg BID suspension, Day 1) was 2123.44. The “Phenylalanine excretion over 24 hours, Mean” value (SLC6A19; 25 mg BID suspension, Day 1) was 37.38, the “Hartnup Amino Acids excretion over 24 hours, Mean” value (SLC6A19; 25 mg BID suspension, Day 7) was 1835.21 and the “Phenylalanine excretion over 24 hours, Mean” value (SLC6A19; 25 mg BID suspension, Day 7) was 35.22. For the same molecule, the “Hartnup Amino Acids excretion over 24 hours, Mean” value (SLC6A19; 25 mg BID suspension, Day 14) was 1427.77, the “Phenylalanine excretion over 24 hours, Mean” value (SLC6A19; 25 mg BID suspension, Day 14) was 19.65 and the “increase of urinary excretion of Hartnup amino acids over 24 hours” value (SLC6A19; 75 mg BID suspension versus PBO (0.4 g)) was 13 fold. For the same molecule, the “Hartnup Amino Acids excretion over 24 hours, Mean” value (SLC6A19; 75 mg BID suspension, Day 1) was 4472.55, the “Phenylalanine excretion over 24 hours, Mean” value (SLC6A19; 75 mg BID suspension, Day 1) was 105.25 and the “Hartnup Amino Acids excretion over 24 hours, Mean” value (SLC6A19; 75 mg BID suspension, Day 7) was 4398.31. The “Phenylalanine excretion over 24 hours, Mean” value (SLC6A19; 75 mg BID suspension, Day 7) was 70.98, the “Hartnup Amino Acids excretion over 24 hours, Mean” value (SLC6A19; 75 mg BID suspension, Day 14) was 4922.75 and the “Phenylalanine excretion over 24 hours, Mean” value (SLC6A19; 75 mg BID suspension, Day 14) was 88.64. For the same molecule, the “Urinary excretion of Hartnup amino acids over 24 hours” value (SLC6A19; 75 mg BID suspension, healthy volunteers) was 4.9 g, the “Hartnup Amino Acids excretion over 24 hours, Mean” value (SLC6A19; 150 mg QD suspension, Day 1) was 3861.43 and the “Phenylalanine excretion over 24 hours, Mean” value (SLC6A19; 150 mg QD suspension, Day 1) was 106.76. For the same molecule, the “Hartnup Amino Acids excretion over 24 hours, Mean” value (SLC6A19; 150 mg QD suspension, Day 7) was 6785.54, the “Phenylalanine excretion over 24 hours, Mean” value (SLC6A19; 150 mg QD suspension, Day 7) was 166.71 and the “Hartnup Amino Acids excretion over 24 hours, Mean” value (SLC6A19; 150 mg QD suspension, Day 14) was 3737.47. For the same molecule, the “Phenylalanine excretion over 24 hours, Mean” value (SLC6A19; 150 mg QD suspension, Day 14) was 72.43.
